In PubChem BioAssay (NCI):
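Test compounds were applied to cells in 96-well plates for 48 hours at 5 doses. Here, GI50 denotes the concentration required for 50% inhibition of growth. The concentration for full growth arrest is given as TGI.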

Columns and labels:
Assay in all cases: inhibition of tumour cell growth, NCI panel, 48 h
[1] = system: OVCAR-5 ovarian
[2] = system: RPMI-8226 leukemia
[3] = system: PC-3 prostate
[4] = system: DU-145 prostate
[5] = system: 786-0 renal
[6] = system: M14 melanoma
[7] = system: NCI/ADR-RES ovarian
[8] = system: MDA-MB-231 breast
[9] = system: SF-539 CNS
[10] = system: UO-31 renal
[11] = system: OVCAR-4 ovarian
[12] = system: NCI-H522 lung
[13] = system: HCT-116 colon
[14] = system: COLO 205 colon
[15] = system: K-562 leukemia
[16] = system: RXF 393 renal
[17] = system: HT29 colon
[18] = system: SF-295 CNS
[19] = system: UACC-62 melanoma
[20] = system: BT-549 breast
[21] = system: MCF7 breast
[22] = system: SW-620 colon
[23] = system: CAKI-1 renal
[24] = system: HL-60(TB) leukemia
[25] = system: OVCAR-3 ovarian
[26] = system: SR leukemia
[27] = system: EKVX NSCLC
[28] = system: ACHN renal
[29] = system: TK-10 renal
[30] = system: SK-MEL-2 melanoma
[31] = system: KM12 colon
[32] = system: OVCAR-8 ovarian
[33] = system: HOP-62 NSCLC
[34] = system: T-47D breast
[35] = system: SK-MEL-28 melanoma
[36] = system: MOLT-4 leukemia
[37] = system: NCI-H23 lung
[38] = system: SN12C renal
[39] = system: HS 578T breast
[40] = system: MDA-MB-435
[41] = system: IGROV1 ovarian
[42] = system: HOP-92 NSCLC
[43] = system: SF-268 CNS
[44] = system: HCC-2998 colon
[45] = system: SNB-19 CNS
[46] = system: HCT-15 colon
[47] = system: CCRF-CEM leukemia
[48] = system: A498 renal
[49] = system: NCI-H226 lung
[50] = system: SK-OV-3 ovarian
[51] = system: SNB-75 CNS
[52] = system: UACC-257 melanoma
[53] = system: NCI-H460 lung
[54] = system: U251 CNS
[55] = system: LOX IMVI melanoma
[56] = system: SK-MEL-5 melanoma
[57] = system: A549 NSCLC

COC(=O)c1sc(=S)c2sc(C(=O)OC)c(C(=O)OC)c2c1C(=O)OC
GI50 [1]: 92.2 µM
TGI [1]: > 100 µM
GI50 [2]: 22 µM
TGI [2]: 48.8 µM
GI50 [3]: 37.2 µM
TGI [3]: > 100 µM
GI50 [4]: 71.1 µM
TGI [4]: > 100 µM
GI50 [5]: 89.4 µM
TGI [5]: > 100 µM
GI50 [6]: 32.5 µM
TGI [6]: > 100 µM
GI50 [7]: 35.4 µM
TGI [7]: > 100 µM
GI50 [8]: 36.3 µM
TGI [8]: > 100 µM
GI50 [9]: 36.7 µM
TGI [9]: > 100 µM
GI50 [10]: 68.5 µM
TGI [10]: > 100 µM
GI50 [11]: 82.2 µM
TGI [11]: > 100 µM
GI50 [12]: 31 µM
TGI [12]: 91.5 µM
GI50 [13]: 45 µM
TGI [13]: > 100 µM
GI50 [14]: 69.8 µM
TGI [14]: > 100 µM
GI50 [15]: 36.2 µM
TGI [15]: > 100 µM
GI50 [16]: 41.7 µM
TGI [16]: > 100 µM
GI50 [17]: 72.6 µM
TGI [17]: > 100 µM
GI50 [18]: 39.3 µM
TGI [18]: > 100 µM
GI50 [19]: 36 µM
TGI [19]: > 100 µM
GI50 [20]: 46.8 µM
TGI [20]: > 100 µM
GI50 [21]: 40 µM
TGI [21]: > 100 µM
GI50 [22]: 74.8 µM
TGI [22]: > 100 µM
GI50 [23]: 58.1 µM
TGI [23]: > 100 µM
GI50 [24]: 21.9 µM
TGI [24]: 62.3 µM
GI50 [25]: 35.5 µM
TGI [25]: > 100 µM
GI50 [26]: 23.3 µM
TGI [26]: 48.2 µM
GI50 [27]: 89.9 µM
TGI [27]: > 100 µM
GI50 [28]: 40.3 µM
TGI [28]: > 100 µM
GI50 [29]: 18.1 µM
TGI [29]: 89.8 µM
GI50 [30]: 38.7 µM
TGI [30]: > 100 µM
GI50 [31]: 36.4 µM
TGI [31]: > 100 µM
GI50 [32]: 57.7 µM
TGI [32]: > 100 µM
GI50 [33]: 59.7 µM
TGI [33]: > 100 µM
GI50 [34]: 77.7 µM
TGI [34]: > 100 µM
GI50 [35]: 71.8 µM
TGI [35]: > 100 µM
GI50 [36]: 36.9 µM
TGI [36]: > 100 µM
GI50 [37]: 44.8 µM
TGI [37]: > 100 µM
GI50 [38]: 30.7 µM
TGI [38]: > 100 µM
GI50 [39]: 46.5 µM
TGI [39]: > 100 µM
GI50 [40]: 51.3 µM
TGI [40]: > 100 µM
GI50 [41]: 37.1 µM
TGI [41]: > 100 µM
GI50 [42]: 24.3 µM
TGI [42]: > 100 µM
GI50 [43]: 58.8 µM
TGI [43]: > 100 µM
GI50 [44]: 20.5 µM
TGI [44]: 76.1 µM
GI50 [45]: 86.7 µM
TGI [45]: > 100 µM
GI50 [46]: 38 µM
TGI [46]: > 100 µM
GI50 [47]: 30.8 µM
TGI [47]: 80.1 µM
GI50 [48]: 22.2 µM
TGI [48]: 52.1 µM
GI50 [49]: 42 µM
TGI [49]: > 100 µM
GI50 [50]: > 100 µM
TGI [50]: > 100 µM
GI50 [51]: 52 µM
TGI [51]: > 100 µM
GI50 [52]: 26.8 µM
TGI [52]: 92 µM
GI50 [53]: 44.3 µM
TGI [53]: > 100 µM
GI50 [54]: 50.5 µM
TGI [54]: > 100 µM
GI50 [55]: 46.3 µM
TGI [55]: > 100 µM
GI50 [56]: 39.1 µM
TGI [56]: > 100 µM
GI50 [57]: 51.2 µM
TGI [57]: > 100 µM

O=C(Nc1ccc(-n2cc(-c3ccncc3)c(-c3ccc(Cl)c(O)c3)n2)cc1)c1ccc(Cl)c(Cl)c1
GI50 [1]: 10.2 µM
TGI [1]: > 100 µM
GI50 [2]: 0.736 µM
TGI [2]: 3.47 µM
GI50 [3]: 4.18 µM
TGI [3]: > 100 µM
GI50 [4]: > 100 µM
TGI [4]: > 100 µM
GI50 [5]: 1.78 µM
TGI [5]: 4.3 µM
GI50 [6]: 2.35 µM
TGI [6]: 7.56 µM
GI50 [7]: 4.91 µM
TGI [7]: > 100 µM
GI50 [8]: 1.17 µM
TGI [8]: > 100 µM
GI50 [9]: 0.694 µM
TGI [9]: > 100 µM
GI50 [10]: 2.83 µM
TGI [10]: 8.62 µM
GI50 [11]: > 100 µM
TGI [11]: > 100 µM
GI50 [12]: 5.34 µM
TGI [12]: > 100 µM
GI50 [13]: 2.89 µM
TGI [13]: > 100 µM
GI50 [14]: 4.3 µM
TGI [14]: > 100 µM
GI50 [15]: 1.32 µM
TGI [15]: > 100 µM
GI50 [17]: 2.6 µM
TGI [17]: > 100 µM
GI50 [18]: 1.01 µM
TGI [18]: 2.77 µM
GI50 [19]: 3.22 µM
TGI [19]: 22.4 µM
GI50 [20]: 5.04 µM
TGI [20]: > 100 µM
GI50 [21]: 4.63 µM
TGI [21]: > 100 µM
GI50 [22]: 4.42 µM
TGI [22]: > 100 µM
GI50 [23]: 3.67 µM
TGI [23]: 21.3 µM
GI50 [24]: 2.97 µM
TGI [24]: 6.35 µM
GI50 [25]: > 100 µM
TGI [25]: > 100 µM
GI50 [26]: 3.6 µM
TGI [26]: > 100 µM
GI50 [27]: 5.81 µM
TGI [27]: > 100 µM
GI50 [28]: 4.2 µM
TGI [28]: > 100 µM
GI50 [29]: > 100 µM
TGI [29]: > 100 µM
GI50 [30]: 4.05 µM
TGI [30]: > 100 µM
GI50 [31]: 3.05 µM
TGI [31]: > 100 µM
GI50 [32]: 4.68 µM
TGI [32]: > 100 µM
GI50 [33]: 0.711 µM
TGI [33]: 2.65 µM
GI50 [34]: 8.09 µM
TGI [34]: > 100 µM
GI50 [35]: 2.94 µM
TGI [35]: > 100 µM
GI50 [36]: 4.02 µM
TGI [36]: > 100 µM
GI50 [37]: 4.18 µM
TGI [37]: > 100 µM
GI50 [38]: 5.7 µM
TGI [38]: > 100 µM
GI50 [39]: 3.83 µM
TGI [39]: > 100 µM
GI50 [40]: 2.73 µM
TGI [40]: > 100 µM
GI50 [41]: > 100 µM
TGI [41]: > 100 µM
GI50 [42]: 8.97 µM
TGI [42]: > 100 µM
GI50 [43]: > 100 µM
TGI [43]: > 100 µM
GI50 [44]: 3.43 µM
TGI [44]: 19.7 µM
GI50 [45]: > 100 µM
TGI [45]: > 100 µM
GI50 [46]: 1.12 µM
TGI [46]: > 100 µM
GI50 [47]: 4.52 µM
TGI [47]: > 100 µM
GI50 [48]: 35.7 µM
TGI [48]: > 100 µM
GI50 [49]: 26.1 µM
TGI [49]: > 100 µM
GI50 [50]: 2.08 µM
TGI [50]: > 100 µM
GI50 [51]: 3.92 µM
TGI [51]: > 100 µM
GI50 [52]: 4.74 µM
TGI [52]: > 100 µM
GI50 [53]: 3.09 µM
TGI [53]: > 100 µM
GI50 [54]: 2.65 µM
TGI [54]: > 100 µM
GI50 [56]: 1.15 µM
TGI [56]: 2.43 µM
GI50 [57]: 6.71 µM
TGI [57]: > 100 µM
